The values that follow are results of earlier work, collected in patent US8524703B2, “Bridgehead amine ring-fused indoles and indolines” (AbbVie Inc., priority 2009, dated 2013).

Series [1] has as its system Patients with mild-to-moderate Alzheimer's disease. The following applies: cited from earlier work.
Series [2] concerns primary rat cortical neurons. The settings on record: comparable to that evoked by BDNF; cited from earlier work.

The structures appear in SMILES notation.

On to `Cc1ccc2c(c1)c1c(n2CCc2ccc(C)nc2)CCN(C)C1` [dimebolin, 2,3,4,5-tetrahydro-2,8-dimethyl-5-[2-(6-methyl-3-pyridinyl)ethyl]-1H-pyrido[4,3-b]indole], for which the “clinical course of disease, improvement over baseline for ADAS-Cog” value in series [1] (20 mg three times a day (60 mg/day)) is recorded as “significant improvement”. Also, the “most frequent adverse event” value in series [1] (recently reported clinical studies) is “dry mouth”. Also, the neurite outgrowth result in series [2] was “increase neurite outgrowth”.
